Test results taken from ChEMBL document CHEMBL4616621, “Pro-apoptotic carboxamide analogues of natural fislatifolic acid targeting Mcl-1 and Bcl-2” (Bioorg Med Chem Lett, 2020).

Tests used:
[1] = target: Induced myeloid leukemia cell differentiation protein Mcl-1 (Homo sapiens, UniProt Q07820); assay: Inhibition of Mcl-1 (unknown origin)/Bid interaction preincubated for 5 mins followed by fluorescein-labeled peptide addition and measured after 10 mins by fluorescein-labeled peptide displacement based fluorescence polarization assay
Chain of Induced myeloid leukemia cell differentiation protein Mcl-1 (Q07820 whole entry): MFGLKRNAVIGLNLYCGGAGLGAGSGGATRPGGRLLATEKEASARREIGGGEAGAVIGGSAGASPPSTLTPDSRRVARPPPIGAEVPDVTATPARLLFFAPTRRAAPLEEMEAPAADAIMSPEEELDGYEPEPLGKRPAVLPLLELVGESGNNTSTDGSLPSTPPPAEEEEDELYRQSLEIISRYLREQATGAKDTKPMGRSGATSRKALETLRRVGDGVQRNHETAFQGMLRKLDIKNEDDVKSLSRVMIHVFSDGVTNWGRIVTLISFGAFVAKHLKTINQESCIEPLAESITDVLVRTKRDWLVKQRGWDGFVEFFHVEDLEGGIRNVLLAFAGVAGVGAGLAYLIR

MCF7 = assay: Antiproliferative activity against human MCF7 cells assessed as cell death; assay type: functional, cell-based
Bcl-2-like protein 1 = Bcl-2-like protein 1 (Homo sapiens, UniProt Q07817); assay: Inhibition of Bcl-xL (unknown origin)/Bak interaction preincubated for 5 mins followed by fluorescein-labeled peptide addition and measured after 10 mins by fluorescein-labeled peptide displacement based fluorescence polarization assay
Chain of Bcl-2-like protein 1 (Q07817 whole entry): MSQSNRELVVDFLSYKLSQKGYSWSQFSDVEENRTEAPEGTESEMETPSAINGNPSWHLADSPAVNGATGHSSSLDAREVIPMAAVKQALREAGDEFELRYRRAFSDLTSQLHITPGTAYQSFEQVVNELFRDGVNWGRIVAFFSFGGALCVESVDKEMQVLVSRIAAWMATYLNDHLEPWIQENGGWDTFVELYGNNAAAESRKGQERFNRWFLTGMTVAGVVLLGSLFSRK

[2] = target: Apoptosis regulator Bcl-2 (Homo sapiens, UniProt P10415); assay: Inhibition of Bcl2 (unknown origin)/Bim interaction preincubated for 5 mins followed by fluorescein-labeled peptide addition and measured after 10 mins by fluorescein-labeled peptide displacement based fluorescence polarization assay
Chain of Apoptosis regulator Bcl-2 (P10415 whole entry): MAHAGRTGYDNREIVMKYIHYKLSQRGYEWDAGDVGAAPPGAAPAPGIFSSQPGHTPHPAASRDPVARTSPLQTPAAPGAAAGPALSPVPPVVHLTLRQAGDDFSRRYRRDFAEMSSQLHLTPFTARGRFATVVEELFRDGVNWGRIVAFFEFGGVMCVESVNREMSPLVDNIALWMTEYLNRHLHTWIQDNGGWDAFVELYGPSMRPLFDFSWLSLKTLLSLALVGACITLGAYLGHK

A549 = assay: Antiproliferative activity against human A549 cells assessed as cell death; assay type: functional, cell-based

Ki [1] | Ki (Bcl-2-like protein 1) | Ki [2] | Compound | IC50 (MCF7) | IC50 (A549)
8.2 µM | 17.4 µM | 0.7 µM | CC(C)=CCCC1=CC[C@@H](C(=O)NO)[C@H](c2ccccc2)C1 |  | 
7.3 µM | 19 µM | 0.6 µM | CC(C)=CCCC1=CC[C@H](C(=O)NO)[C@@H](c2ccccc2)C1 | 72.3 µM | 71.7 µM
> 33 µM | > 23 µM | > 23 µM | CC(C)=CCCC1=CC[C@H](C(=O)Nc2ccc(O)cc2)[C@@H](c2ccccc2)C1 | 66.7 µM | 66.8 µM
> 33 µM | > 23 µM | > 23 µM | COc1ccc(NC(=O)[C@H]2CC=C(CCC=C(C)C)C[C@@H]2c2ccccc2)cc1 |  | 
> 33 µM | > 23 µM | > 23 µM | COC(=O)c1ccc(NC(=O)[C@@H]2CC=C(CCC=C(C)C)C[C@H]2c2ccccc2)cc1 |  | 
8.5 µM | > 23 µM | > 23 µM | CC(C)=CCCC1=CC[C@H](C(=O)Nc2ccc(C(=O)O)cc2)[C@@H](c2ccccc2)C1 |  | 
16.6 µM | > 23 µM | 2.4 µM | CONC(=O)[C@H]1CC=C(CCC=C(C)C)C[C@@H]1c1ccccc1 | 45.2 µM | 42.2 µM
> 33 µM | > 23 µM | > 23 µM | CC(C)=CCCC1=CC[C@@H](C(=O)Nc2ccc(O)cc2)[C@H](c2ccccc2)C1 |  | 
> 33 µM | > 23 µM | > 23 µM | COc1ccc(NC(=O)[C@@H]2CC=C(CCC=C(C)C)C[C@H]2c2ccccc2)cc1 |  | 
> 33 µM | > 23 µM | 2.7 µM | CONC(=O)[C@@H]1CC=C(CCC=C(C)C)C[C@H]1c1ccccc1 |  | 
> 33 µM | > 23 µM | > 23 µM | COC(=O)c1ccc(NC(=O)[C@H]2CC=C(CCC=C(C)C)C[C@@H]2c2ccccc2)cc1 |  | 
> 33 µM | > 23 µM | 2.2 µM | CC(C)=CCCC1=CC[C@@H](C(=O)Nc2ccc(C(=O)O)cc2)[C@H](c2ccccc2)C1 |  | 

The remaining lines, values behind:

Compound | Ki [1] | Ki (Bcl-2-like protein 1) | Ki [2] | IC50 (MCF7) | IC50 (A549)
CC(C)=CCCC1=CC[C@H](C(=O)O)[C@@H](c2ccccc2)C1 | 4 µM | 5.7 µM | > 23 µM | 64.3 µM | 53.7 µM
CC(C)=CCCC1=CC[C@H](C(=O)N(C)O)[C@@H](c2ccccc2)C1 | 7.2 µM | > 23 µM | 2.1 µM |  | 
CC1(C)CCCC2=C1C[C@@H](C(=O)O)[C@H](c1ccccc1)C2 | > 33 µM | > 23 µM | > 23 µM |  | 
CON(C)C(=O)[C@H]1CC2=C(CCCC2(C)C)C[C@@H]1c1ccccc1 | 18.9 µM | > 23 µM | > 23 µM |  | 
CON(C)C(=O)[C@@H]1CC=C(CCC=C(C)C)C[C@H]1c1ccccc1 | > 33 µM | > 23 µM | > 23 µM |  | 
CC(C)=CCCC1=CC[C@@H](C(=O)O)[C@H](c2ccccc2)C1 | 8.6 µM | 9.6 µM | > 23 µM |  | 
CON(C)C(=O)[C@@H]1CC2=C(CCCC2(C)C)C[C@H]1c1ccccc1 | 15 µM | > 23 µM | > 23 µM |  | 
CC(C)=CCCC1=CC[C@@H](C(=O)N(C)C)[C@H](c2ccccc2)C1 | > 33 µM | > 23 µM | > 23 µM |  | 
COC(=O)CCNC(=O)[C@H]1CC=C(CCC=C(C)C)C[C@@H]1c1ccccc1 | 5.5 µM | > 23 µM | 3.1 µM | 96.8 µM | 87.9 µM
CC(C)=CCCC1=CC[C@H](C(=O)N(C)C)[C@@H](c2ccccc2)C1 | 5.4 µM | 20.1 µM | > 23 µM |  | 
CC(C)=CCCC1=CC[C@@H](C(N)=O)[C@H](c2ccccc2)C1 | > 33 µM | > 23 µM | > 23 µM |  | 
CON(C)C(=O)[C@H]1CC=C(CCC=C(C)C)C[C@@H]1c1ccccc1 | 0.9 µM | > 23 µM | 0.3 µM | 42.1 µM | 31.2 µM
CC(C)=CCCC1=CC[C@H](C(=O)NCCC(=O)O)[C@@H](c2ccccc2)C1 | > 33 µM | > 23 µM | > 23 µM |  | 
CC(C)=CCCC1=CC[C@@H](C(=O)N(C)O)[C@H](c2ccccc2)C1 | 9.2 µM | > 23 µM | 2.3 µM |  | 
CC1(C)CCCC2=C1C[C@H](C(=O)O)[C@@H](c1ccccc1)C2 | 9 µM | > 23 µM | > 23 µM |  | 
COC(=O)CCNC(=O)[C@@H]1CC=C(CCC=C(C)C)C[C@H]1c1ccccc1 | 15 µM | > 23 µM | > 23 µM |  | 
CC(C)=CCCC1=CC[C@@H](C(=O)NCCC(=O)O)[C@H](c2ccccc2)C1 | > 33 µM | > 23 µM | > 23 µM |  | 
CC(C)=CCCC1=CC[C@H](C(N)=O)[C@@H](c2ccccc2)C1 | > 33 µM | > 23 µM | > 23 µM |  | 
CCCCCC[C@H]1C(=O)O[C@H](C)[C@H](NC(=O)c2cccc(NC=O)c2O)C(=O)O[C@@H](C)[C@@H]1OC(=O)CC(C)C [ANTIMYCIN A] |  |  |  |  | 6.5 µM
